# Starred links: 1 amine or outer side, 2 acyl side, 3 side chain; linkers in the order of their positions; H or OH if unused. Positions of bridges follow the written chain, without caps; N, C: chain ends. Non-standard residues stand in square brackets, D forms with d. Residues, ends and D or L forms follow the SMILES beside them. *: point of attachment. X7 = CC(C(=O)[C@H](Cc1ccccc1)N(C)[*:1])[C@@H](Cc1ccccc1)C(=O)[*:2]; NMeF = CN[C@@H](Cc1ccccc1)C(=O)O; 3Pal = N[C@@H](Cc1cccnc1)C(=O)O; NMeD = CN[C@@H](CC(=O)O)C(=O)O; aThr = C[C@H](O)[C@H](N)C(=O)O; NMeL = CN[C@@H](CC(C)C)C(=O)O; NMeV = CN[C@H](C(=O)O)C(C)C; NMeA = CN[C@@H](C)C(=O)O; Piperidide = C1CCN(*)CC1; dNMeA = CN[C@H](C)C(=O)O; NPrGly = CCCNCC(=O)O; Sar = CNCC(=O)O; tBu = CC(C)(C)*
# Test: Caco-2 membrane permeability, improved method as used in the following Examples (96-well, 20 to 24 h preincubation)
# Type: in vitro ADME
# Conditions: human, Caco-2, Caco-2 (cm/sec)
# In short: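 Papp (cm/sec) was derived from LC/MS of basal samples collected 180 min after apical dosing in FaSSIF/HBSS pH 6.0 with 1% DMSO, against a basal HBSS pH 7.4 receiver containing 4% BSA. Three-week Caco-2 cultures were first preincubated with compound in DMEM+FaSSIF at 37 °C for 20–24 h.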
row,SMILES,Papp A→B at 180 min
1,CCCN1CC(=O)N(C)[C@@H](CC(C)C)C(=O)N[C@@H](COC(C)(C)C)C(=O)N(C)[C@@H](Cc2ccccc2)C(=O)N(C)[C@@H](Cc2ccccc2)C(=O)N[C@H](C(=O)N2CCCCC2)CC(=O)N[C@H](C)C(=O)N(C)[C@@H](Cc2ccccc2)C(=O)N[C@@H](C(C)C)C(=O)N(C)[C@@H](CC(C)C)C(=O)N[C@@H]([C@@H](C)O)C1=O [pd194] ([dA][NMeF]V[NMeL]T[NPrGly][NMeL]S(tBu)[NMeF][NMeF]D-Piperidide; lactam N-11),5.3 ×10⁻⁶ cm/s
2,CCCN1CC(=O)N(C)[C@@H](Cc2ccccc2)C(=O)N[C@@H]([C@@H](C)CC)C(=O)N(C)[C@@H](Cc2ccccc2)C(=O)N[C@@H]([C@@H](C)O)C(=O)N(C)CC(=O)N(C)[C@@H](Cc2ccccc2)C(=O)N(C)[C@@H](CC(C)C)C(=O)N[C@@H](COC(C)(C)C)C(=O)N(C)[C@@H](C(C)C)C(=O)N[C@H](C(=O)N2CCCCC2)CC1=O [pd195] ([NPrGly][NMeF]I[NMeF]T[Sar][NMeF][NMeL]S(tBu)[NMeV]D-Piperidide; lactam N-11),5 ×10⁻⁶ cm/s
3,CC(C)C[C@@H]1NC(=O)[C@H](Cc2ccccc2)N(C)C(=O)[C@H](C)N(C)C(=O)C[C@@H](C(=O)N2CCCCC2)NC(=O)[C@H](C(C)C)N(C)C(=O)[C@H](Cc2ccccc2)N(C)C(=O)[C@H](COC(C)(C)C)NC(=O)[C@H](CC(C)C)N(C)C(=O)CN(C)C(=O)[C@H](Cc2cccnc2)NC(=O)[C@H](CC(C)C)N(C)C1=O [pd197] ([NMeA][NMeF]L[NMeL][3Pal][Sar][NMeL]S(tBu)[NMeF][NMeV]D-Piperidide; lactam N-11),3 ×10⁻⁶ cm/s
4,CC(C)C[C@@H]1NC(=O)[C@H](Cc2ccccc2)N(C)C(=O)[C@@H](C)N(C)C(=O)C[C@@H](C(=O)N2CCCCC2)N(C)C(=O)[C@H](Cc2ccccc2)N(C)C(=O)[C@H](Cc2ccccc2)N(C)C(=O)[C@H](COC(C)(C)C)NC(=O)[C@H](C(C)C)N(C)C(=O)CN(C)C(=O)[C@H]([C@@H](C)O)NC(=O)[C@H](CC(C)C)N(C)C1=O [pd199] ([dNMeA][NMeF]L[NMeL]T[Sar][NMeV]S(tBu)[NMeF][NMeF][NMeD]-Piperidide; lactam N-11),2.6 ×10⁻⁶ cm/s
5,CC(C)C[C@@H]1NC(=O)[C@H](Cc2ccccc2)N(C)C(=O)[C@H]2CCCN2C(=O)C[C@@H](C(=O)N2CCCCC2)N(C)C(=O)[C@H](Cc2ccccc2)N(C)C(=O)[C@H](Cc2ccccc2)N(C)C(=O)[C@H](COC(C)(C)C)NC(=O)[C@H](C(C)C)N(C)C(=O)CN(C)C(=O)[C@H]([C@@H](C)O)NC(=O)[C@H](CC(C)C)N(C)C1=O [pd200] ([dP][NMeF]L[NMeL]T[Sar][NMeV]S(tBu)[NMeF][NMeF][NMeD]-Piperidide; lactam N-11),2.6 ×10⁻⁶ cm/s
6,CC(C)C[C@@H]1NC(=O)[C@H](Cc2ccccc2)N(C)C(=O)[C@H](C)N(C)C(=O)C[C@@H](C(=O)N2CCCCC2)N(C)C(=O)[C@H](Cc2ccccc2)N(C)C(=O)[C@H](Cc2ccccc2)N(C)C(=O)[C@H](COC(C)(C)C)NC(=O)[C@H](C(C)C)N(C)C(=O)CN(C)C(=O)[C@H]([C@@H](C)O)NC(=O)[C@H](CC(C)C)N(C)C1=O [pd202] ([NMeA][NMeF]L[NMeL]T[Sar][NMeV]S(tBu)[NMeF][NMeF][NMeD]-Piperidide; lactam N-11),2.1 ×10⁻⁶ cm/s
7,CC(C)C[C@@H]1NC(=O)[C@H](Cc2ccccc2)N(C)C(=O)[C@@H]2CCCN2C(=O)C[C@@H](C(=O)N2CCCCC2)NC(=O)[C@H](Cc2ccccc2)N(C)C(=O)[C@H](Cc2ccccc2)N(C)C(=O)[C@H](COC(C)(C)C)NC(=O)[C@H](CC(C)C)N(C)C(=O)CN(C)C(=O)[C@H]([C@@H](C)O)NC(=O)[C@H](CC(C)C)N(C)C1=O [pd203] (P[NMeF]L[NMeL]T[Sar][NMeL]S(tBu)[NMeF][NMeF]D-Piperidide; lactam N-11),2.1 ×10⁻⁶ cm/s
8,CC(C)C[C@@H]1NC(=O)[C@H](C)N(C)C(=O)C[C@@H](C(=O)N2CCCCC2)NC(=O)[C@H](CC(C)C)N(C)C(=O)CN(C)C(=O)[C@H]([C@@H](C)O)NC(=O)[C@H](Cc2ccccc2)N(C)C(=O)[C@H](Cc2ccccc2)N(C)C(=O)[C@H](CC(C)C)NC(=O)[C@H](Cc2ccccc2)N(C)C(=O)[C@H](CC(C)C)N(C)C1=O [pd204] ([NMeA]L[NMeL][NMeF]L[NMeF][NMeF]T[Sar][NMeL]D-Piperidide; lactam N-11),2 ×10⁻⁶ cm/s
9,CC[C@H](C)[C@@H]1NC(=O)[C@H](Cc2ccccc2)N(C)C(=O)CN(C)C(=O)C[C@@H](C(=O)N2CCCCC2)NC(=O)[C@H](C(C)C)N(C)C(=O)[C@H](COC(C)(C)C)NC(=O)[C@H](CC(C)C)N(C)C(=O)[C@H](Cc2ccccc2)N(C)C(=O)CN(C)C(=O)[C@H]([C@@H](C)O)NC(=O)[C@H](Cc2ccccc2)N(C)C1=O [pd205] ([Sar][NMeF]I[NMeF]T[Sar][NMeF][NMeL]S(tBu)[NMeV]D-Piperidide; lactam N-11),1.8 ×10⁻⁶ cm/s
10,CC(C)C[C@@H]1NC(=O)[C@H](Cc2ccccc2)N(C)C(=O)[C@H]2CCCN2C(=O)C[C@@H](C(=O)N2CCCCC2)NC(=O)[C@H](Cc2ccccc2)N(C)C(=O)[C@H](Cc2ccccc2)N(C)C(=O)[C@H](COC(C)(C)C)NC(=O)[C@H](CC(C)C)N(C)C(=O)CN(C)C(=O)[C@H]([C@@H](C)O)NC(=O)[C@H](CC(C)C)N(C)C1=O [pd206] ([dP][NMeF]L[NMeL]T[Sar][NMeL]S(tBu)[NMeF][NMeF]D-Piperidide; lactam N-11),1.8 ×10⁻⁶ cm/s
11,CC(C)C[C@@H]1NC(=O)[C@H](Cc2ccccc2)N(C)C(=O)[C@H](COC(C)(C)C)NC(=O)[C@H](Cc2ccccc2)N(C)C(=O)[C@H](C)N(C)C(=O)[C@H](CC(C)C)N(C)C(=O)[C@@H](C)NC(=O)C[C@@H](C(=O)N2CCCCC2)N(C)C(=O)[C@H](Cc2ccccc2)N(C)C(=O)[C@H]([C@@H](C)O)NC(=O)[C@H](C(C)C)N(C)C1=O [pd208] ([dA][NMeL][NMeA][NMeF]S(tBu)[NMeF]L[NMeV]T[NMeF][NMeD]-Piperidide; lactam N-11),1.7 ×10⁻⁶ cm/s

# Same assay, conditions: human, Caco-2, Papp; Table 23-1, sequences where ARC = 3; read-out: Caco-2
row,SMILES,Papp A→B at 180 min
1,CC(C)C[C@@H]1NC(=O)[C@H](Cc2ccccc2)N(C)C(=O)[C@@H]2CCCN2C(=O)C[C@@H](C(=O)N2CCCCC2)N(C)C(=O)[C@H](Cc2ccccc2)C(C)C(=O)[C@H](Cc2ccccc2)N(C)C(=O)[C@H](COC(C)(C)C)NC(=O)[C@H](C(C)C)N(C)C(=O)CN(C)C(=O)[C@H]([C@@H](C)O)NC(=O)[C@H](CC(C)C)N(C)C1=O (stereo partly shown) [pd196] (P[NMeF]L[NMeL]T[Sar][NMeV]S(tBu)[X7][NMeD]-Piperidide; lactam N-10),4 ×10⁻⁶ cm/s

# Same assay, conditions: human, Caco-2; read-out: Caco-2
row,SMILES,Papp A→B at 180 min
1,CC[C@H](C)[C@@H]1NC(=O)[C@H](CC(C)C)N(C)C(=O)[C@H](C)N(C)C(=O)[C@H]([C@H](C)O)NC(=O)[C@H](Cc2ccccc2)N(C)C(=O)[C@H](C)N(C)C(=O)[C@@H](C)N(C)C(=O)C[C@@H](C(=O)N(C)[C@@H](Cc2ccccc2)C(=O)N(C)[C@@H](Cc2ccccc2)C(=O)N[C@@H](C)C(=O)N2CCCCC2)NC(=O)[C@H](C(C)C)N(C)C(=O)[C@H](CC(C)C)N(C)C1=O [pd201] ([dNMeA][NMeA][NMeF][aThr][NMeA][NMeL]I[NMeL][NMeV]D[NMeF][NMeF]A-Piperidide; lactam N-10),2.3 ×10⁻⁶ cm/s

# Reference: patent US20200131669A1, “CYCLIC PEPTIDE COMPOUND HAVING HIGH MEMBRANE PERMEABILITY, AND LIBRARY CONTAINING SAME” (Chugai Seiyaku Kabushiki Kaisha, priority 2017, published 2020)
